Measured values from US4882419A, “Process for preparing antibiotic L 17392 (deglucoteicoplanin)” (Gruppo Lepetit S.p.A., priority 1984, dated 1989).
In brackets after ≈: the same amount, converted by molar mass.

Tests used:
[1] = Potentiometric titration profile (pH1/2 values); format: physicochemical; conditions: methylcellosolve:water 4:1, titration with 0.01N NaOH
[2] = Solubility (physico-chemical characteristics); format: physicochemical
[3] = tested on: Staplylococcus aureus Tour; test: In vitro antibacterial activity, two-fold dilution MIC in microtiter system; format: cell-based, Staphylococcus aureus
Procedure: The in vitro antibacterial activity of L 17392 was determined using the two-fold dilution method in microtiter system. Todd-Hewitt broth (Difco) was used for streptococci and Isosensitest broth (Oxoid) for staphylococci and gram-negative bacteria. Overnight broth cultures were diluted so that the final inoculum was about 10^4 colony-forming units per ml (cfu/ml). […] The obtained results are reported in Table I below: | ^(a) Inoculum: 10^6 cfu/ml | ^(b) Determined in the presence of 30% bovine serum

[4] = tested on: Streptococcus pyogenes C 203; test: as above; format: cell-based; conditions: Todd-Hewitt broth, inoculum about 10^4 cfu/ml, 18-24 h at 37° C.
Procedure: (§1) The in vitro antibacterial activity of L 17392 was determined using the two-fold dilution method in microtiter system. Todd-Hewitt broth (Difco) was used for streptococci and Isosensitest broth (Oxoid) for staphylococci and gram-negative bacteria. Overnight broth cultures were diluted so that the final inoculum was about 10^4 colony-forming units per ml (cfu/ml).

[5] = tested on: Streptococcus pneumoniae UC 41; test: as above; format: cell-based; conditions: Todd-Hewitt broth, inoculum about 10^4 cfu/ml, 18-24 h at 37° C.
Procedure: as §1

[6] = tested on: Staphylococcus aureus ATCC 6538; test: as above; format: cell-based; conditions: Isosensitest broth, inoculum about 10^4 cfu/ml, 18-24 h at 37° C.
Procedure: as §1

[7] = tested on: Escherichia coli SKF 12140; test: as above; format: cell-based; conditions: Isosensitest broth, inoculum about 10^4 cfu/ml, 18-24 h at 37° C.
Procedure: as §1

[8] = tested on: Streptococcus faecalis ATCC 7080; test: as above; format: cell-based; conditions: Todd-Hewitt broth, inoculum about 10^4 cfu/ml, 18-24 h at 37° C.
Procedure: as §1

[9] = tested on: Pseudomonas aeruginosa ATCC 10145; test: as above; format: cell-based; conditions: Isosensitest broth, inoculum about 10^4 cfu/ml, 18-24 h at 37° C.
Procedure: as §1

[10] = tested on: Proteus vulgaris × 19 H ATCC 881; test: as above; format: cell-based; conditions: Isosensitest broth, inoculum about 10^4 cfu/ml, 18-24 h at 37° C.
Procedure: as §1

[11] = tested on: staphylocci (S. aureus, S. epidermidis); test: Antibacterial activity against staphylococci, in words; format: cell-based
Procedure: as §1

S. epidermidis L 785 = test: MIC against clinical isolate methicillin-resistant staphylococci; format: cell-based
Procedure: as §1

S. epidermidis L 1372 = test: as above; format: cell-based
Procedure: as §1

S. epidermidis L 1378 = test: as above; format: cell-based
Procedure: as §1

S. aureus L 1097 = test: as above; format: cell-based
Procedure: as §1

S. aureus L 1526 = test: as above; format: cell-based
Procedure: as §1

S. epidermidis L 835 = test: as above; format: cell-based
Procedure: as §1

S. epidermidis L 1142 = test: as above; format: cell-based
Procedure: as §1

S. aureus L 1096 = test: as above; format: cell-based
Procedure: as §1

S. aureus L 1524 = test: as above; format: cell-based
Procedure: as §1

[12] = tested on: Staphylococcus epieermidis ATCC 12228; test: In vitro antibacterial activity, two-fold dilution MIC in microtiter system; format: cell-based, Staphylococcus epidermidis; conditions: Isosensitest broth, inoculum about 10^4 cfu/ml, 18-24 h at 37° C.
Procedure: as §1

[13] = tested on: clinical isolate methicillin-resistant staphylococci (S. aureus, S. epidermidis); test: Antibacterial activity against methicillin-resistant staphylococci, in words; format: cell-based; conditions: various clinical isolates
Procedure: as §1

[14] = pKa of a sample dissolved in methylcellosolve/water 4:1; format: physicochemical

## CC(=O)N[C@@H]1[C@@H](O[C@H]2c3ccc(c(Cl)c3)Oc3cc4cc(c3O)Oc3ccc(cc3Cl)C[C@@H]3NC(=O)[C@@H](N)c5ccc(O)c(c5)Oc5cc(O)cc(c5)[C@@H](NC3=O)C(=O)N[C@@H]4C(=O)N[C@@H]3C(=O)N[C@H]2C(=O)N[C@@H](C(=O)O)c2cc(O)cc(O)c2-c2cc3ccc2O)O[C@@H](CO)[C@H](O)[C@H]1O (stereo in doubt) [antibiotic L 17046]
[1]; five equivalents
  pH1/2 value, third titration slope: 11
[1]; one equivalent
  pH1/2 value, first titration slope: 5.0
  pH1/2 value, second titration slope: 7.0
[2]; dimethylformamide, dimethylsulfoxide, propyleneglycol and methylcellosolve
  solubility: freely soluble
[2]; methanol
  solubility: slightly soluble
[2]; n-hexane, ethyl ether and acetone
  solubility: almost insoluble
[2]; water at pH>8.0
  solubility: freely soluble

## N[C@H]1C(=O)N[C@@H]2Cc3ccc(c(Cl)c3)Oc3cc4cc(c3O)Oc3ccc(cc3Cl)[C@@H](O)[C@@H]3NC(=O)[C@H](NC(=O)[C@@H]4NC(=O)[C@@H](NC2=O)c2cc(O)cc(c2)Oc2cc1ccc2O)c1ccc(O)c(c1)-c1c(O)cc(O)cc1[C@@H](C(=O)O)NC3=O [antibiotic L 17392, deglucoteicoplanin]
[3]; Determined in the presence of 30% bovine serum
  MIC: 0.2 µg/mL
[3]; Inoculum: 10^6 cfu/ml
  MIC: 0.2 µg/mL (≈ 0.167 µM)
[3]; Isosensitest broth, inoculum about 10^4 cfu/ml, 18-24 h at 37° C.
  MIC: 0.05 µg/mL (≈ 0.0417 µM)
[4]
  MIC: 0.05 µg/mL (≈ 0.0417 µM)
[5]
  MIC: 0.05 µg/mL (≈ 0.0417 µM)
[6]
  MIC: 0.025 µg/mL (≈ 0.0209 µM)
[7]
  MIC: 25 µg/mL (≈ 20.9 µM)
[8]
  MIC: 0.1 µg/mL (≈ 0.0834 µM)
[9]
  MIC: > 100 µg/mL
[10]
  MIC: 50 µg/mL (≈ 41.7 µM)
[11]
  activity against staphylococci (in words): very active
S. epidermidis L 785
  MIC: 0.05 µg/mL (≈ 0.0417 µM)
S. epidermidis L 1372
  MIC: 0.2 µg/mL (≈ 0.167 µM)
S. epidermidis L 1378
  MIC: 0.05 µg/mL (≈ 0.0417 µM)
S. aureus L 1097
  MIC: 0.05 µg/mL (≈ 0.0417 µM)
S. aureus L 1526
  MIC: 0.05 µg/mL (≈ 0.0417 µM)
S. epidermidis L 835
  MIC: 0.05 µg/mL (≈ 0.0417 µM)
S. epidermidis L 1142
  MIC: 0.05 µg/mL (≈ 0.0417 µM)
S. aureus L 1096
  MIC: 0.05 µg/mL (≈ 0.0417 µM)
S. aureus L 1524
  MIC: 0.1 µg/mL (≈ 0.0834 µM)
[12]
  MIC: 0.0125 µg/mL (≈ 0.0104 µM)
[13]
  activity against methicillin-resistant staphylococci (in words): very effective
[2]; aqueous methanol, ethanol and acetone
  solubility: soluble
[2]; ethyl alcohol and dimethylformamide
  solubility: slightly soluble
[2]; water at a pH higher than 9
  solubility: soluble

## deglucoteicoplanin benzyl ester, hydrochloride
[14]
  pKa value: 6.67
